Target: T1, 5-hydroxytryptamine receptor 1A (Homo sapiens, UniProt P08908)
T1 sequence (P08908 whole entry): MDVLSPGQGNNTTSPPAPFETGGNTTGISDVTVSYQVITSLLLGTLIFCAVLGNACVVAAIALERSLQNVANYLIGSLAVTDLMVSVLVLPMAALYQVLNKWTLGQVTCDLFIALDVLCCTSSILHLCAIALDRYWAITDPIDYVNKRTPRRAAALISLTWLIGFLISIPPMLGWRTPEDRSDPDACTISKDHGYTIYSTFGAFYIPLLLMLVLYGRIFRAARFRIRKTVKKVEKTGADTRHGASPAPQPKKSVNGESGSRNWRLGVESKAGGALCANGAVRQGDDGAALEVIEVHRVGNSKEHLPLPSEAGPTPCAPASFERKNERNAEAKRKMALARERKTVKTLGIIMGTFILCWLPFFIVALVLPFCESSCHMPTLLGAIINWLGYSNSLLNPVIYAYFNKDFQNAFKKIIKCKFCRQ
Experiment: serotonin 1A receptor activation, dose response (AID 718)
Conditions: inactive by the depositor's call; pH 7.4; 23 °C

Q: Which IC50 does the source give for `CC(C)=CCC(C)(C)CNC(=O)NC1CCCCC1` here?
A: 40 µM

Q: For `CCCOCCOC(=O)c1[nH]c2c(c1C)C(=O)CC(c1cc(OC)ccc1OC)C2` (configuration not stated), which IC50 is on record?
A: 40 µM

Q: Which IC50 does the source give for `COc1cc2c(cc1OC)-c1cc(N3CCCc4ccccc43)nc(=O)n1CC2` [2-(3,4-dihydro-2H-quinolin-1-yl)-9,10-dimethoxy-6,7-dihydropyrimido[6,1-a]isoquinolin-4-one] here?
A: 25 µM

Q: Which IC50 does the source give for `CCOc1ccc(C2=Nn3c(nnc3-c3ccccc3OC)SC2)cc1` [6-(4-ethoxyphenyl)-3-(2-methoxyphenyl)-7H-[1,2,4]triazolo[3,4-b][1,3,4]thiadiazine] here?
A: 25 µM

Q: With `COC(=O)Nc1nc2ccc(Sc3ccccc3)cc2[nH]1` [FENBENDAZOLE] as the molecule, how does the IC50 read?
A: 40 µM

Q: `CCn1c(=O)c(C(=O)Nc2nc3ccccc3[nH]2)c(O)c2ccccc21` [MLS000027148] was tested. Which IC50 did it give?
A: 40 µM

Q: How did the IC50 turn out when `N#C/C(=C/c1ccc(N2CCCCCC2)o1)c1ccc(F)cc1` [MLS000051438] was run?
A: 10.9 µM

Q: For `CCOc1cccc(-c2nnc3n2N=C(c2cc(OC)ccc2OC)CS3)c1` [MLS000081451], which IC50 is on record?
A: 22.2 µM

Q: How did the IC50 turn out when `COCCOC(=O)c1[nH]c2c(c1C)C(=O)CC(c1ccccc1)C2` (configuration not stated) [SMR000025505] was run?
A: 40 µM

Q: For `CCCOc1ccc2nc(NC(=O)OC)[nH]c2c1` [SMR000058208], which IC50 is on record?
A: 40 µM

Q: `CN(C)c1nc(OCCNC(=O)COc2ccc(Cl)cc2Cl)nc(N2CCCCC2)n1` [SMR000072558] was tested. Which IC50 did it give?
A: 40 µM

Q: For `COc1ccc(C2N(c3ccc(F)cc3)C(=O)C3CCCN32)cc1` (configuration not stated) [SMR000094164], which IC50 is on record?
A: 40 µM

Same assay, conditions: pH 7.4; 23 °C

Q: `CCN(CC)c1ccc2c(Cl)c(Br)c(=O)oc2c1` was tested. Which IC50 did it give?
A: 2.3 µM

Q: Which IC50 does the source give for `CCC(NC(=O)Nc1nnc(C(F)(F)F)s1)(C(F)(F)F)C(F)(F)F` here?
A: 6.92 µM

Q: `O=C(Nc1ccc(-c2nc3ncccc3o2)cc1)c1ccc(Br)o1` was tested. Which IC50 did it give?
A: 8.32 µM

Q: `O=S1(=O)C=C(Sc2nnc(-c3ccccc3)o2)c2ccccc21` was tested. Which IC50 did it give?
A: 2.48 µM

Q: For `OCC12C=CC(O1)c1c2c(O)n(-c2ccc(-c3ccccc3)cc2)c1O` (configuration not stated), which IC50 is on record?
A: 11.6 µM

Q: For `CCn1nc(-c2ccccc2)nc2c(=O)n(C)c(=O)nc1-2` [1-Ethyl-6-methyl-3-phenyl-1H-pyrimido[5,4-e][1,2,4]triazine-5,7-dione], which IC50 is on record?
A: 0.581 µM

Q: With `Cn1c(-c2c(N)n(C3CCCC3)c3nc4ccccc4nc23)nc2ccccc21` [1-cyclopentyl-3-(1-methyl-2-benzimidazolyl)-2-pyrrolo[3,2-b]quinoxalinamine] as the molecule, how does the IC50 read?
A: 2.38 µM

Q: For `CCn1nc(-c2cccs2)nc2c(=O)n(C)c(=O)nc1-2` [1-ethyl-6-methyl-3-thiophen-2-yl-pyrimido[5,4-e][1,2,4]triazine-5,7-dione], which IC50 is on record?
A: 0.421 µM

Q: Which IC50 does the source give for `COc1ccc(-n2nnnc2S(=O)(=O)CC(=O)N2CCCCC2)cc1` [2-[1-(4-methoxyphenyl)tetrazol-5-yl]sulfonyl-1-piperidin-1-ylethanone] here?
A: 2.6 µM

Q: `N#CCCS(=O)(=O)c1nnnn1-c1ccccc1` [3-(1-phenyltetrazol-5-yl)sulfonylpropanenitrile] was tested. Which IC50 did it give?
A: 2.9 µM

Q: With `COc1ccc(-c2cc(C(F)(F)F)nc(S(C)(=O)=O)n2)cc1OC` [4-(3,4-dimethoxyphenyl)-2-methylsulfonyl-6-(trifluoromethyl)pyrimidine] as the molecule, how does the IC50 read?
A: 3.59 µM

Q: For `COc1cccc(N2CCN(c3ncnc4c3[nH]c3ccccc34)CC2C)c1` (configuration not stated) [4-[4-(3-methoxyphenyl)-3-methyl-1-piperazinyl]-5H-pyrimido[5,4-b]indole], which IC50 is on record?
A: 3.31 µM

Q: `Cc1ccc(S(=O)(=O)Nc2cccc3ncccc23)s1` [5-methyl-N-quinolin-5-ylthiophene-2-sulfonamide] was tested. Which IC50 did it give?
A: 1.1 µM

Q: For `Cc1ccc(-n2nc3c([n+]2[O-])CCc2c-3n[o+]n2[O-])cc1` [7-(4-methylphenyl)-3,6-dioxido-4,5-dihydrotriazolo[4,5-e][2,1,3]benzoxadiazole-3,6-diium], which IC50 is on record?
A: 3.26 µM

Q: Which IC50 does the source give for `COc1cccc(N2CCN(c3ncnc4c3[nH]c3ccc(F)cc34)CC2C)c1` (configuration not stated) [8-fluoranyl-4-[4-(3-methoxyphenyl)-3-methyl-piperazin-1-yl]-5H-pyrimido[5,4-b]indole] here?
A: 0.866 µM

Q: How did the IC50 turn out when `COc1ccccc1-c1nnc2n1N=C(c1ccc(O)c(O)c1)CS2` [(4E)-4-[3-(2-methoxyphenyl)-5H-[1,2,4]triazolo[3,4-b][1,3,4]thiadiazin-6-ylidene]-2-oxidanyl-cyclohexa-2,5-dien-1-one] was run?
A: 40 µM

Q: With `CC(=O)Nc1cc(OC(C)=O)c2nonc2c1OC(C)=O` [Acetic acid 7-acetoxy-5-acetylamino-benzo[1,2,5]oxadiazol-4-yl ester] as the molecule, how does the IC50 read?
A: 1.78 µM

Q: `CS(=O)(=O)c1nc(-c2ccccc2)cc(C(F)(F)F)n1` [MLS000044644] was tested. Which IC50 did it give?
A: 2.28 µM

Q: Which IC50 does the source give for `CS(=O)(=O)c1nc(-c2cccs2)cc(C(F)(F)F)n1` [MLS000044645] here?
A: 2.44 µM

Q: `CS(=O)(=O)c1nc(-c2ccco2)cc(C(F)(F)F)n1` [MLS000044646] was tested. Which IC50 did it give?
A: 3.3 µM

Q: Which IC50 does the source give for `COc1ccc(-n2c(O)cc(NCc3ccncc3)c2O)cc1` [MLS000099014] here?
A: 40 µM

Q: How did the IC50 turn out when `CC(=O)Oc1ccc(-n2c(O)c3c(c2O)C2(C)C=CC3(C)O2)cc1` [MLS000107813] was run?
A: 7.33 µM

Q: `O=C(Nc1ccc(N2CCOCC2)cc1)Nc1ccc2nc(-c3ccco3)c(-c3ccco3)nc2c1` [N-(2,3-di-2-furyl-6-quinoxalinyl)-N'-[4-(4-morpholinyl)phenyl]urea] was tested. Which IC50 did it give?
A: 2.29 µM

Q: `COc1cccc(N2CCN(c3ncnc4c3cnn4-c3ccc(C)cc3C)CC2)c1` [SMR000017007] was tested. Which IC50 did it give?
A: 4.78 µM

Q: Which IC50 does the source give for `CCCc1nnc2n1N=C(c1ccc(OC)c(OC)c1)CS2` [SMR000057783] here?
A: 40 µM

Q: How did the IC50 turn out when `Clc1ccc(-n2nnnc2Sc2ncnc3sccc23)cc1` [SMR000066808] was run?
A: 4.85 µM

Q: Which IC50 does the source give for `COc1cc(NS(=O)(=O)c2ccc(C)cc2)c2ncccc2c1` [SMR000071147] here?
A: 0.823 µM

Q: For `COc1cc2c(cc1OC)C1=C(C#N)CC=C(NS(=O)(=O)c3ccccc3)N1CC2` [SMR000092093], which IC50 is on record?
A: 40 µM

Q: How did the IC50 turn out when `CSc1ccccc1NC=C1C(=O)CC(C)(C)CC1=O` [SMR000111352] was run?
A: 1.88 µM

Q: `COC(=O)/C(=C1/Oc2cc(C)oc(=O)c2S1)C(F)(F)F` [methyl (2E)-3,3,3-tris(fluoranyl)-2-(6-methyl-4-oxidanylidene-[1,3]oxathiolo[4,5-c]pyran-2-ylidene)propanoate] was tested. Which IC50 did it give?
A: 1.24 µM
